Experimental data as given in patent US8785457B2 (Cellzome Limited, priority 2009, dated 2014).

Test system: cytokine levels (TNFα, IL-2, IFNγ and IL-4)
Experiment: Anti-CD3 induced cytokine release in the mouse
Assay type: in vivo
Details: 100 mg/kg p.o. 30 minutes before anti-CD3, blood 90 minutes after anti-CD3, compared to control group 2
Experimental: In this mouse model, T cells and NK cells were activated in situ by the intraperitoneal (i.p.) injection of an anti-CD3 antibody into mice that had been pre-treated for 30 minutes with certain compounds of the invention (100 mg/kg po administration). Blood samples were collected 90 minutes after anti-CD3 injection. Plasma samples were prepared and the cytokine levels (Tumor Necrosis factor alpha (TNFα), Interleukin-2 (IL-2), Interferon-gamma (IFNγ) and Interleukin-4 (IL-4)) were measured using a Cytometric Bead Array method.
A single dose of test compound was administered p.o. 30 minutes before anti-CD3 injection. 90 minutes after anti-CD3 injection blood samples were collected for cytokine analysis (approximately 400 μl whole blood anti-coagulated with Na-heparin) and stored frozen until use.
The cytokine measurement was done using the mouse Cytometric Bead Array (CBA) Th1/Th2 kit (BD Biosciences, San Diego, Calif., USA; catalogue number 551287) according to the manufacturer's instruction with the following modifications: all reagents were downscaled by a factor of 2 and the mixture of plasma, beads and detection reagents was done in 96-U-bottom plates. Standards and samples were acquired on a FACSCalibur® instrument (Becton Dickinson) using an HTS plate loader. Data were analysed with the CBA Software provided by Becton Dickinson which draws standard curves and converts mean fluorescence values into concentration values (pg/ml).
Animals: male C57BL/6J mice, 9 weeks old (Janvier, Le Genest St Isle, France).
Test compounds were dosed orally (p.o.) at 100 mg/kg (vehicle: 0.5% CMC, application volume 10 ml/kg).
Anti-CD3 antibody (BD Bioscience, catalogue number 553057): 200 μl of a 10 μg/ml solution in PBS were applied i.p. (2 μg per mouse).

CCOC(=O)N1Cc2nc(-c3ccc(NC(=O)NC4CC4)cc3F)nc(N3CCOC[C@@H]3C)c2C1 [Example 131, (S)-ethyl 2-(4-(3-cyclopropylureido)-2-fluorophenyl)-4-(3-methylmorpholino)-5H-pyrrolo[3,4-d]pyrimidine-6(7H)-carboxylate]
reduction: IFNγ plasma levels | IL-2 plasma levels | IL-4 plasma levels | TNFα plasma levels
